Data as given in patent US20240140957A1, “BRIDGED COMPOUNDS AS KRAS G12D INHIBITOR AND DEGRADER AND THE USE THEREOF” (BeiGene Switzerland GmbH, priority 2021, published 2024).

Molecular target: GDP-loaded KRAS G12D (Homo sapiens, UniProt P01116, G12D)
Assay: KRAS G12D Probe Displacement Assay
Assay type: binding
Settings: KRAS G12D 0.5 nM, biotinylated probe 2 4 nM; Table 6 letters; read-out: KRAS G12D Probe Displacement Assay IC50 (class)

Sequence of GDP-loaded KRAS G12D (P01116 1-188 isoform P01116-2 G12D): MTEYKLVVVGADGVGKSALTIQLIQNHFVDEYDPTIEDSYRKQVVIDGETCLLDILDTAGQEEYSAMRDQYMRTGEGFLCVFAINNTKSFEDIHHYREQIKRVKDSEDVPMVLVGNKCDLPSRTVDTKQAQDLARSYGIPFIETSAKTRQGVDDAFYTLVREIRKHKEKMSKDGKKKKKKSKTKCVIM

`Cc1cc(N)nc(-c2c(Cl)cc3c(N4CC5CCC(C4)N5)nc(OCC4(C)CCCOC4)nc3c2F)c1C(F)(F)F` (stereo not shown) [Example E201, 6-(4-(3,8-diazabicyclo[3.2.1]octan-3-yl)-6-chloro-8-fluoro-2-((3-methyltetrahydro-2H-pyran-3-yl)methoxy)quinazolin-7-yl)-4-methyl-5-(trifluoromethyl)pyridin-2-amine] was tested, and the IC50 was 100 to 1000 nM.
`Cc1cc(N)nc(-c2c(Cl)cc3c(N4CC5CCC(C4)N5)nc(OCC4(C)CCOCC4)nc3c2F)c1C(F)(F)F` [Example E202, 6-(4-(3,8-diazabicyclo[3.2.1]octan-3-yl)-6-chloro-8-fluoro-2-((4-methyltetrahydro-2H-pyran-4-yl)methoxy)quinazolin-7-yl)-4-methyl-5-(trifluoromethyl)pyridin-2-amine] was tested, and the IC50 was 50 to 100 nM.
`Cc1cc(N)nc(-c2c(Cl)cc3c(N4CC5CCC(C4)N5)nc(OCC4(C)CCOC4)nc3c2F)c1C(F)(F)F` (stereo not shown) [Example E203, 6-(4-(3,8-diazabicyclo[3.2.1]octan-3-yl)-6-chloro-8-fluoro-2-((3-methyltetrahydrofuran-3-yl)methoxy)quinazolin-7-yl)-4-methyl-5-(trifluoromethyl)pyridin-2-amine] showed an IC50 of 50 to 100 nM.
In the case of `COCC(C#N)(CO)COc1nc(N2CC3CCC(C2)N3)c2cc(Cl)c(-c3nc(N)cc(C)c3C(F)(F)F)c(F)c2n1` (stereo not shown) [Example E204, 3-((7-(6-amino-4-methyl-3-(trifluoromethyl)pyridin-2-yl)-4-(3,8-diazabicyclo [3.2.1]octan-3-yl)-6-chloro-8-fluoroquinazolin-2-yl)oxy)-2-(hydroxymethyl)-2-(methoxymethyl)propanenitrile], the IC50 is reported as less than 50 nM.
In the case of `Cc1cc(N)nc(-c2c(Cl)cc3c(N4CC5CCC(C4)N5)nc(OCC(C#N)(CO)CO)nc3c2F)c1C(F)(F)F` [Example E205, 3-((7-(6-amino-4-methyl-3-(trifluoromethyl)pyridin-2-yl)-4-(3,8-diazabicyclo [3.2.1]octan-3-yl)-6-chloro-8-fluoroquinazolin-2-yl)oxy)-2,2-bis(hydroxymethyl) propanenitrile], the IC50 is reported as less than 50 nM.
With `Cc1cc(N)nc(-c2c(Cl)cc3c(N4CC5CCC(C4)N5)nc(OCC4(C#N)CCOC4)nc3c2F)c1C(F)(F)F` (stereo not shown) [Example E206, 3-(((7-(6-amino-4-methyl-3-(trifluoromethyl)pyridin-2-yl)-4-(3,8-diazabicyclo[3.2.1]octan-3-yl)-6-chloro-8-fluoroquinazolin-2-yl)oxy)methyl)tetrahydrofuran-3-carbonitrile] the IC50 was less than 50 nM.
Molecule `Cc1cc(N)nc(-c2c(Cl)cc3c(N4CC5CCC(C4)N5)nc(OCC4(C)CCC(=O)N4)nc3c2F)c1C(F)(F)F` (stereo not shown) [Example E207, 5-(((7-(6-amino-4-methyl-3-(trifluoromethyl)pyridin-2-yl)-4-(3,8-diazabicyclo[3.2.1]octan-3-yl)-6-chloro-8-fluoroquinazolin-2-yl)oxy)methyl)-5-methylpyrrolidin-2-one] has an IC50 of less than 50 nM.
In the case of `Cc1cc(N)nc(-c2c(Cl)cc3c(N4CC5CCC(C4)N5)nc(OCC4(C)CNC(=O)C4)nc3c2F)c1C(F)(F)F` (stereo not shown) [Example E208, 4-(((7-(6-amino-4-methyl-3-(trifluoromethyl)pyridin-2-yl)-4-(3,8-diazabicyclo[3.2.1]octan-3-yl)-6-chloro-8-fluoroquinazolin-2-yl)oxy)methyl)-4-methylpyrrolidin-2-one], the IC50 is reported as less than 50 nM.
`Nc1nc2c(-c3c(C(F)(F)F)cc4c(N5CC6CCC(C5)N6)nc(OCC5COCC5O)nc4c3F)ccc(F)c2s1` (stereo not shown) [Example E209, 4-(((7-(2-amino-7-fluorobenzo[d]thiazol-4-yl)-4-(3,8-diazabicyclo [3.2.1]octan-3-yl)-8-fluoro-6-(trifluoromethyl)quinazolin-2-yl)oxy)methyl)tetrahydrofuran-3-ol] showed an IC50 of less than 50 nM.
`Nc1nc2c(-c3c(C(F)(F)F)cc4c(N5CC6CCC(C5)N6)nc(OCC5C6COCC65)nc4c3F)ccc(F)c2s1` (stereo not shown) [Example E210, 4-(2-((3-oxabicyclo[3.1.0]hexan-6-yl)methoxy)-4-(3,8-diazabicyclo[3.2.1]octan-3-yl)-8-fluoro-6-(trifluoromethyl)quinazolin-7-yl)-7-fluorobenzo[d]thiazol-2-amine] gave an IC50 of less than 50 nM.
Molecule `N#CC1(COc2nc(N3CC4CCC(C3)N4)c3cc(C(F)(F)F)c(-c4ccc(F)c5sc(N)nc45)c(F)c3n2)CCOC1` (stereo not shown) [Example E211, 3-(((7-(2-amino-7-fluorobenzo[d]thiazol-4-yl)-4-(3,8-diazabicyclo [3.2.1]octan-3-yl)-8-fluoro-6-(trifluoromethyl)quinazolin-2-yl)oxy)methyl)tetrahydrofuran-3-carbonitrile] has an IC50 of less than 50 nM.
`CC1(COc2nc(N3CC4CCC(C3)N4)c3cc(C(F)(F)F)c(-c4ccc(F)c5sc(N)nc45)c(F)c3n2)CCC(=O)N1` (stereo not shown) [Example E212, 5-(((7-(2-amino-7-fluorobenzo[d]thiazol-4-yl)-4-(3,8-diazabicyclo[3.2.1]octan-3-yl)-8-fluoro-6-(trifluoromethyl)quinazolin-2-yl)oxy)methyl)-5-methylpyrrolidin-2-one] was tested, and the IC50 was less than 50 nM.
For `Nc1nc2c(-c3c(C(F)(F)F)cc4c(N5CC6CCC(C5)N6)nc(OCC5CCCCC5O)nc4c3F)ccc(F)c2s1` (stereo not shown) [Example E213, 2-(((7-(2-amino-7-fluorobenzo[d]thiazol-4-yl)-4-(3,8-diazabicyclo[3.2.1]octan-3-yl)-8-fluoro-6-(trifluoromethyl)quinazolin-2-yl)oxy)methyl)cyclohexan-1-ol], the IC50 was less than 50 nM.
Molecule `N#CC1(COc2nc(N3CC4CCC(C3)N4)c3cc(C(F)(F)F)c(-c4ccc(F)c5sc(N)nc45)c(F)c3n2)CCC1` [Example E214, 1-(((7-(2-amino-7-fluorobenzo[d]thiazol-4-yl)-4-(3,8-diazabicyclo [3.2.1]octan-3-yl)-8-fluoro-6-(trifluoromethyl)quinazolin-2-yl)oxy)methyl)cyclobutane-1-carbonitrile] has an IC50 of less than 50 nM.
Molecule `CC1(COc2nc(N3CC4CCC(C3)N4)c3cc(C(F)(F)F)c(-c4ccc(F)c5sc(N)nc45)c(F)c3n2)COCCO1` (stereo not shown) [Example E215, 4-(4-(3,8-diazabicyclo[3.2.1]octan-3-yl)-8-fluoro-2-((2-methyl-1,4-dioxan-2-yl)methoxy)-6-(trifluoromethyl)quinazolin-7-yl)-7-fluorobenzo[d]thiazol-2-amine] has an IC50 of less than 50 nM.
For `Nc1nc2c(-c3c(C(F)(F)F)cc4c(N5CC6CCC(C5)N6)nc(OCC5CCCOC5)nc4c3F)ccc(F)c2s1` (stereo not shown) [Example E216, 4-(4-(3,8-diazabicyclo[3.2.1]octan-3-yl)-8-fluoro-2-((tetrahydro-2H-pyran-3-yl)methoxy)-6-(trifluoromethyl)quinazolin-7-yl)-7-fluorobenzo[d]thiazol-2-amine], the IC50 was less than 50 nM.
In the case of `Nc1nc2c(-c3c(C(F)(F)F)cc4c(N5CC6CCC(C5)N6)nc(OCC56COCC5C6)nc4c3F)ccc(F)c2s1` (stereo not shown) [Example E217, 4-(2-((3-oxabicyclo[3.1.0]hexan-1-yl)methoxy)-4-(3,8-diazabicyclo[3.2.1]octan-3-yl)-8-fluoro-6-(trifluoromethyl)quinazolin-7-yl)-7-fluorobenzo[d]thiazol-2-amine], the IC50 is reported as less than 50 nM.
In the case of `Nc1nc2c(-c3c(C(F)(F)F)cc4c(N5CC6CCC(C5)N6)nc(OCC5(F)CCOCC5)nc4c3F)ccc(F)c2s1` [Example E218, 4-(4-(3,8-diazabicyclo[3.2.1]octan-3-yl)-8-fluoro-2-((4-fluorotetra hydro-2H-pyran-4-yl)methoxy)-6-(trifluoromethyl)quinazolin-7-yl)-7-fluorobenzo[d]thiazol-2-amine], the IC50 is reported as less than 50 nM.
`Nc1nc2c(-c3c(C(F)(F)F)cc4c(N5CC6CCC(C5)N6)nc(OC[C@@H]5COCCO5)nc4c3F)ccc(F)c2s1` [Example E219, 4-(2-(((S)-1,4-dioxan-2-yl)methoxy)-4-(3,8-diazabicyclo[3.2.1]octan-3-yl)-8-fluoro-6-(trifluoromethyl)quinazolin-7-yl)-7-fluorobenzo[d]thiazol-2-amine] gave an IC50 of less than 50 nM.
`Nc1nc2c(-c3c(C(F)(F)F)cc4c(N5CC6CCC(C5)N6)nc(OCC5CCCC5O)nc4c3F)ccc(F)c2s1` (stereo not shown) [Example E220] was tested, and the IC50 was 50 to 100 nM.
With `Nc1nc2c(-c3c(C(F)(F)F)cc4c(N5CC6CCC(C5)N6)nc(OCC5(O)CCOCC5)nc4c3F)ccc(F)c2s1` [Example E221, 4-(((7-(2-amino-7-fluorobenzo[d]thiazol-4-yl)-4-(3,8-diazabicyclo [3.2.1]octan-3-yl)-8-fluoro-6-(trifluoromethyl)quinazolin-2-yl)oxy)methyl)tetrahydro-2H-pyran-4-ol] the IC50 was less than 50 nM.
With `Nc1nc2c(-c3c(C(F)(F)F)cc4c(N5CC6CCC(C5)N6)nc(OCC56CC(O)(C5)C6)nc4c3F)ccc(F)c2s1` [Example E222, 3-(((7-(2-amino-7-fluorobenzo[d]thiazol-4-yl)-4-(3,8-diazabicyclo [3.2.1]octan-3-yl)-8-fluoro-6-(trifluoromethyl)quinazolin-2-yl)oxy)methyl)bicyclo[1.1.1]pentan-1-ol] the IC50 was less than 50 nM.
`CC(=O)N1CCCC(COc2nc(N3CC4CCC(C3)N4)c3cc(C(F)(F)F)c(-c4ccc(F)c5sc(N)nc45)c(F)c3n2)C1` (stereo not shown) [Example E223, 1-(3-(((7-(2-amino-7-fluorobenzo[d]thiazol-4-yl)-4-(3,8-diazabicyclo[3.2.1]octan-3-yl)-8-fluoro-6-(trifluoromethyl)quinazolin-2-yl)oxy)methyl)piperidin-1-yl)ethan-1-one] was tested, and the IC50 was less than 50 nM.
`Cc1cc(N)nc(-c2c(Cl)cc3c(N4CC5CCC(C4)N5)nc(OCC45COC(C4)C5)nc3c2F)c1C(F)(F)F` [Example E224, 6-(2-((2-oxabicyclo[2.1.1]hexan-4-yl)methoxy)-4-(3,8-diazabicyclo[3.2.1]octan-3-yl)-6-chloro-8-fluoroquinazolin-7-yl)-4-methyl-5-(trifluoromethyl)pyridin-2-amine] showed an IC50 of less than 50 nM.
`Cc1cc(N)nc(-c2c(Cl)cc3c(N4CC5CCC(C4)N5)nc(OCC4(C)CCC(=O)NC4)nc3c2F)c1C(F)(F)F` (stereo not shown) [Example E225, 5-(((7-(6-amino-4-methyl-3-(trifluoromethyl)pyridin-2-yl)-4-(3,8-diazabicyclo[3.2.1]octan-3-yl)-6-chloro-8-fluoroquinazolin-2-yl)oxy)methyl)-5-methylpiperidin-2-one] showed an IC50 of less than 50 nM.
